Here are results for one substance from patent publication US12467038B2, “Methods of culturing human pluripotent cells” (Hadasit Medical Research Services and Development Ltd., priority 2019, dated 2025).

The test system of one experiment is hPSCs. Put plainly: Undifferentiated propagation and PGC differentiation of hPSCs on laminin. It is filed as cell-based, human. Conditions: HES-2 hPSCs. Here is the method: LN-hPSCs were cultured on mouse LN111, 3-D Culture Matrix Laminin I (CULTREX, TREVIGEN, #3446-005-01, Gaithersburg, Md., USA). 0.175 ml diluted LN111 (1:14 to a coating concentration of 0.43 mg/ml) was used to coat a well of a 6-well culture dish, leaving a margin of 2-3 mm at the well edge (a final concentration of ˜8 microgram/cm^2). The coated dishes were incubated from 4 hours to 4 days, at 37° C., and washed with PBS before use. LN-hPSCs were cultured in a medium composed of DMEM/F12, B27 supplement (1:50), N2 supplement (1:100), 2 mM L-glutamine, 50 units/ml penicillin, 50 μg/ml streptomycin (all from Invitrogen), and supplemented daily with 20 ng/ml FGF2 (Peprotech). Cells were passaged every 5-6 days using 1.5 mg/ml collagenase type IV (Invitrogen). 5 μM ROCK inhibitor (Y-27632, Peprotech) was added for the first day after passaging.
hPSCs were cultured on human recombinant LN521 (BIOLAMINA, Sundbyberg, Sweden). Coating of culture dishes with hrLN521 was performed according to the manufacturer's instructions (Coating concentration ˜0.45 microgram/cm^2). Cells were cultured in the same medium used for culturing LN-hPSCs, and passaged with collagenase type IV.
PGC differentiation of hPSCs in suspension—LN-hPSCs and hPSCs cultured on hrLN-521 were dissociated into a single-cell suspension using TrypLE Select Enzyme (Invitrogen). Primed hPSCs were first dissociated from the MEF feeders by treatment with collagenase type IV, followed by dissociation into single cells by TrypLE Select Enzyme. 2000-3000 cells were seeded into a microwell of AggreWell™800 24-well plate (STEMCELL Technologies), and cultured as EBs in suspension, in PGCLC differentiation medium as described elsewhere (Irie et al., 2015).

For a further experiment, the system named is LN-hPSCs. Description: FACS analysis of pluripotency cell-surface markers. In kind it is cell-based, human. Conditions: HES-1 cells cultured on LN111. As for the experimental part: Signaling pathways analysis—hPSCs were cultured on LN111 for 2 days in complete medium, and then for additional 3-5 days in a medium+/−FGF2 in the presence of the following small molecules: PD032590 1 μM (Peprotech), LY294002 10 μM, SB431542 10 μM, CHIR99021 3 μM (all from Cayman Chemical, Michigan, USA), XAV939 2.5 μM (Peprotech), BMP4 50 ng/ml (Biogems-Peprotech). FACS analysis—FACS analyses were performed using the following primary antibodies: mouse IgM anti-TRA-1-60 (1:100; mab4360, R&D), and mouse IgM anti-TRA-1-81 (1:100; mab4381, R&D), and Rat IgM anti-SSEA-3. Staining with respective isotype control antibodies (all from eBiosciences) served as controls. Detection of primary antibodies was performed using the following secondary antibodies: FITC-conjugated Polyclonal Goat Anti-Mouse Immunoglobulins (1:100; Dako, Glostrup, Denmark), APC-conjugated Goat anti-Mouse IgM/G (1:200; Cat. No. 1020-11, SouthernBiotech, Birmingham, Ala., USA), and APC-conjugated anti-Rat (1:200; eBioscience). FACS analysis was performed on a FACScalibur system (Becton-Dickinson, San Jose, Calif.) using the Cellquest software. A detailed FACS procedure is described elsewhere. FACS analysis—FACS analyses for pluripotency marker expression were performed using mouse anti-TRA-1-60 (1:100; mab4360, R&D), and mouse anti-TRA-1-81 (1:100; mab4381, R&D). […]
In general terms: Flow cytometry measures light scatter and fluorescence of single cells or particles in a stream.

Turning to “LN111: mouse LN111, 3-D Culture Matrix Laminin I (CULTREX, TREVIGEN), coating of culture dishes”, in the experiment with hPSCs, the “competence to initiate germ cell specification” value is “competent to initiate germ cell specification”. Moreover, the “cells expressing TRA-1-60 and TRA-1-81” value in the experiment on LN-hPSCs was “over 90%”.
